Reference: US20240390286A1, “PREPARATION OF PHARMACEUTICAL COMPOSITIONS USING SUPERCYCLE VAPOR PHASE DEPOSITION OF METAL OXIDES” (Applied Materials, Inc., priority 2023, published 2024)

Columns and labels:
Format in all cases: physicochemical
[1] = Particle size distribution by laser diffraction before and after coating
Excerpt: As shown in the table below, there is no significant change in particle size distribution after the coating process.

[2] = Indomethacin dissolution, pH 7.2 sodium phosphate buffer, USP2 apparatus (paddle); conditions: 37° C., 100 rpm
Procedure: In some embodiments, the dissolution or drug release of the coated particles can be assessed by an in vitro release over time (dissolution) analysis. In some embodiments, the dissolution or drug release of the coated particles can be assessed by HPLC analysis. In some embodiments, the dissolution is assessed in methanol. In some embodiments, the dissolution is assessed in a sodium phosphate buffer solution (PBS) (e.g., pH 7.2, with or without surfactant) at 37° C., with a stirring of 100 revolutions per minute (RPM), for more than 1 minute, more than 2 minutes, more than 5 minutes, more than 10 minutes, more than 20 minutes, more than 30 minutes, more than 40 minutes, more than 50 minutes, more than 60 minutes, more than 120 minutes, more than 3 hours, more than 4 hours, more than 5 hours, more than 6 hours, more than 7 hours, more than 8 hours, more than 12 hours, more than 16 hours, more than 24 hours. In some embodiments, the coated particles have a reduced dissolution rate compared to uncoated drug particles. […]

[3] = Indomethacin dissolution, pH 7.2 PIPES buffer, USP4 apparatus (flow through); conditions: 37° C., 16 ml/min
Procedure: FIG. 8 depicts the results of a study of indomethacin dissolution in pH 7.2 PIPES buffer solution in a USP4 dissolution apparatus (flow through) at 37° C. at a 16 ml/min flow rate. […] Again, the indomethacin release rates for AZO coated particles were in between that of ZnOx coated particles and that of AlOx coated particles. The release rate of AZO coated particles decreases as the Al/Zn ratio increases.

D10 ([1]; laser diffraction): 4.4 ± 0.4 μm
D50 ([1]; laser diffraction): 13.3 ± 0.1 μm
D90 ([1]; laser diffraction): 24.5 ± 0.5 μm
Span ([1]; laser diffraction size distribution): 1.5
indomethacin release profile [2]: immediate indomethacin release profile
indomethacin release profile [3]: immediate indomethacin release
Compound: COc1ccc2c(c1)c(CC(=O)O)c(C)n2C(=O)c1ccc(Cl)cc1 [UC-m-IMC, indomethacin]
